We go through one sequence from US10676514B2, “CDCA1-derived peptide and vaccine containing same” (ONCOTHERAPY SCIENCE, INC., priority 2014, dated 2020).

“Also recorded” adds a separate entry of the source.

The subject of assay [1] is COS7 cells transfected with CDCA1 and HLA-A*3303. The assay can be described thus: Specific CTL activity against target cells expressing CDCA1 and HLA-A*3303. It counts as cell-based, African green monkey. The note with it: listed as CDCA1-A33-9-43. The text has this:
A cDNA encoding the open-reading frame of a target gene or HLA-A*3303 was amplified by PCR. The PCR-amplified product was cloned into an expression vector. Either or both of the target gene-expressing vector and the HLA-A*3303-expressing vector were transfected into COS7, which is a cell line negative for the target gene and HLA, using Lipofectamine 2000 (Invitrogen) following the manufacturer's recommended protocol. Two days after transfection, the transfected cells were harvested using versene (Invitrogen), and used as the target cell for CTL activity assay (5×10^4 cells/well).
The CTL clone established against CDCA1-A33-9-43 (SEQ ID NO: 27) was investigated for its ability to recognize target cells expressing CDCA1 and the HLA-A*3303 molecule. COS7 cells transfected with both full-length CDCA1 and the HLA-A*3303 gene (a specific model of target cells expressing CDCA1 and the HLA-A*3303 gene) were prepared as the target cell. COS7 cells transfected with either full-length CDCA1 or HLA-A*3303 were prepared as the control.

For assay [2], the system named is peptide-pulsed C1R-A33 cells. The assay can be described thus: IFN-gamma ELISPOT assay of peptide-induced CTLs (HLA-A*3303). The format is cell-based, human. The following applies: CTLs induced from HLA-A*3303-positive donors, peptide-pulsed C1R-A33 vs control. The text has this:
Monocyte-derived dendritic cells (DCs) were used as the antigen-presenting cell to induce a cytotoxic T lymphocyte (CTL) response against peptides presented on human leukocyte antigens (HLAs). As described in the other sections, DCs were generated in vitro (Nakahara S et al., Cancer Res 2003, 63(14): 4112-8). Specifically, peripheral-blood mononuclear cells isolated from healthy volunteers (HLA-A*3303-positive) with the Ficoll-Paque plus solution (Pharmacia) were separated by attaching to plastic tissue culture dishes (Becton Dickinson) and concentrated as a monocyte fraction. The monocyte-concentrated population was cultured in the presence of 1000 IU/ml granulocyte macrophage colony-stimulating factor (R&D System) and 1000 IU/ml interleukin(IL)-4 (R&D System) in an AIM-V medium (Invitrogen) containing 2% heat-inactivated autologous serum (AS). After seven days of culturing, the cytokine-induced DCs were pulsed with 20 micro-g/ml each of the synthesized peptides in an AIM-V medium at 37 degrees C. for three hours in the presence of 3 micro-g/ml beta 2-microglobulin. The generated cells appeared to express on their cell surface DC-associated molecules such as CD80, CD83, CD86 and HLA class II (data not shown). Next, these peptide-pulsed DCs were inactivated by X-ray irradiation (20 Gy), and mixed in a 1:20 ratio with autologous CD8^+ T cells obtained by positive selection using the CD8 Positive Isolation Kit (Dynal). These culture products were seeded in a 48-well plate (Corning). Each well was made to contain 1.5×10^4 peptide-pulsed DCs, 3×10^5 CD8^+ T cells and 10 ng/ml IL-7 (R&D System) in 0.5 ml of the AIM-V/2% AS medium. Three days later, these culture products were added with a final concentration of 20 IU/ml IL-2 (CHIRON). On day 7 and day 14, T cells were further stimulated with peptide-pulsed autologous DCs. The DCs were prepared every time by the same method as above. On day 21, after the third peptide stimulation, CTLs were examined against the peptide-pulsed CIR-A33 cell by a human interferon (IFN)-gamma enzyme-linked immunospot (ELISPOT) assay (Tanaka H et al., Br J Cancer 2001, 84(1): 94-9; Umano Y et al., Br J Cancer 2001, 84(8): 1052-7; Uchida N et al., Clin Cancer Res 2004, 10(24): 8577-86; Suda T et al., Cancer Sci 2006, 97(5): 411-9; Watanabe T et al., Cancer Sci 2005, 96(8): 498-506).
(§1) Specifically, peptide-pulsed C1R-A33 (1×10^4 cells/well) was prepared as the stimulator cell. The induced CTLs, i.e., CTL lines and CTL clones, were used as the responder cell. The IFN-gamma ELISPOT assay and IFN-gamma ELISA were performed according to the manufacturer's manual.

In a further assay the test system is peptide-pulsed C1R-A33. The experiment in a line: IFN-gamma ELISA of CTL lines and CTL clones (HLA-A*3303). It counts as cell-based, human. Here is the method:
CTLs were propagated in culture using methods similar to those disclosed by Riddell et al. (Walter E A et al., N Engl J Med 1995, 333(16): 1038-44; Riddell S R et al., Nat Med 1996, 2(2): 216-23). The CTLs were co-cultured in a total of 25 ml AIM-V medium containing 5% AS (AIM-V/5% AS) and 40 ng/ml anti-CD3 antibody with two types of Mitomycin C-treated human B lymphoblastoid cell lines at 5×10^6 cells/flask. One day after beginning of the culturing, 120 IU/ml IL-2 was added to the culture. On days 5, 8 and 11, a fresh AIM-V/5% AS medium containing 30 IU/ml IL-2 was added to the culture (Tanaka H et al., Br J Cancer 2001, 84(1): 94-9; Umano Y et al., Br J Cancer 2001, 84(8): 1052-7; Uchida N et al., Clin Cancer Res 2004, 10(24): 8577-86; Suda T et al., Cancer Sci 2006, 97(5): 411-9; Watanabe T et al., Cancer Sci 2005, 96(8): 498-506).
Dilution of CTLs was carried out to make 0.3, 1 and 3 cells/well in 96 round-bottomed microtiter plates (Nalge Nunc International). The CTLs were co-cultured with two types of Mitomycin C-treated human B lymphoblastoid cell lines at 1×10^4 cells/well in a total of 150 micro-l/well AIM-V/5% AS medium with 30 ng/ml anti-CD3 antibody and 125 IU/ml IL-2. Ten days later, IL-2 was added to the medium at 50 micro-l/well to reach a final concentration of 125 IU/ml. On day 14, the CTL activity was tested, and the CTL clones were propagated using the same method as described above (Uchida N et al., Clin Cancer Res 2004, 10(24): 8577-86; Suda T et al., Cancer Sci 2006, 97(5): 411-9; Watanabe T et al., Cancer Sci 2005, 96(8): 498-506).
as §1
Background: ELISA stands for enzyme-linked immunosorbent assay.

Consider “EVLHMIYMR (a peptide derived from CDCA1) [SEQ ID NO: 27]”, for which the “specific CTL activity of CTL clone” value in assay [1] (COS7 cells transfected with both CDCA1 and HLA-A*3303) was “specific CTL activity; also recorded: potent CTL activity”. Also, the “specific CTL activity of CTL clone against control cells” value in assay [1] (COS7 cells transfected with either full-length CDCA1 or HLA-A*3303) was “a significant specific CTL activity was not shown; also recorded: a significant specific CTL activity was not detected”. Further, the “peptide-specific CTL activity (IFN-gamma production)” value in assay [2] was “potent IFN-gamma production”. Also, the “IFN-gamma production of CTL clones” value in the assay with peptide-pulsed C1R-A33 (CTL clones by limiting dilution, peptide-pulsed C1R-A33, listed as CDCA1-A33-9-43) is reported as “Potent IFN-gamma production”. Further, the “IFN-gamma production of CTL lines” value in the assay with peptide-pulsed C1R-A33 (CTL lines, peptide-pulsed vs non-pulsed target cells, HLA-A*3303) is given as “potent IFN-gamma production”.
